Data from patent publication US6222035A, “[1,2,4] triazolo [1,5-C] pyrimidine derivatives” (Kyowa Hakko Kogyo Co., Ltd., priority 1997, dated 2001).
Counter-ions that a name gives are not always drawn.

Assays:
[1] = test system: CGS 21680-induced catalepsy in mice; test: Activity on CGS 21680-induced Catalepsy; assay type: in vivo, mouse (male ddY); details: 10 mg/kg oral; for Total score (catalepsy): 10 animals, maximum 50 points, control 48; for Number of Animals showing remission: catalepsy score 4 points or less in 10 cases; for inhibition in vivo at 10 mg/kg: Mus musculus, CGS 21680-induced catalepsy, read-out: Remission ratio (%)
Description: Activity on CGS 21680-induced Catalepsy
Parkinson's disease is motor deficit based on the degeneration and cell death of the nigrostriatal dopaminergic neuron. […] [Journal of Neuroscience, 16: 605 (1996)]. Accordingly, it is considered that adenosine A2A receptor agonists positively regulate the output of the striopallidal GABAergic neurons and, as a result, catalepsy is induced by the administration of CGS 21680.
This test was carried out using 10 animals per group of male ddY mice of 5 week age (22 to 25 g in body weight, Japan SLC). CGS 21680 (manufactured by RBI) was dissolved in a physiological saline (manufactured by Otsuka Pharmaceutical), and 10 μg/20 μl of the solution was injected into mouse intracerebro-ventricle. Test compounds were used by suspending them in distilled water containing 0.3% of polyoxyethylene(20)sorbitan monooleate (hereinafter referred to as "Tween 80") (manufactured by Otsuka Pharmaceutical). […] One hour after the administration of the test compound, only forelimbs or only hindlimbs of each animal were laid on a vertically arranged stand made of acryl, having a size of 4.5 cm in height and 1.0 cm in width, to measure catalepsy symptoms. All of the compounds were administered orally in a dose of 10 mg/kg.
The effect was judged by total catalepsy scores of 10 animals in one group (the maximum is 50 points). When the total score was 40 points or less, the activity of drugs was judged positive. The number of animals showing remission of catalepsy was expressed by the number of cases in which the catalepsy score was 4 points or less in 10 cases. The catalepsy remission ratio was expressed as the percentage of the total score in the test compound-administered group to the total score in the control group.

adenosine A2A receptor = target: T1, adenosine A2A receptor (Rattus norvegicus, UniProt P30543); test: Adenosine receptor binding activity (adenosine A2A receptor binding test), 3H-CGS 21680 binding; details: 2 h; 10^-7 M; read-out: A2A receptor inhibition ratio (%)
T1 construct: from tissue; host or cells: rat corpus striatum, washed membrane suspension
Description: Adenosine receptor binding activity (adenosine A2A receptor binding test) This test was carried out by slightly modifying the method of Bruns et al. [Molecular Pharmacology, 29: 331 (1986)].
Corpus striatum of a rat was suspended in an ice-cooled 50 mM tris(hydroxymethyl)aminomethane hydrochloride (hereinafter referred to as "Tris-HCl") buffer (pH 7.7) using Polytron Homogenizer (manufactured by Kinematica Co.). The suspension was centrifuged (50,000×g, 10 minutes), and the obtained precipitate was re-suspended in the same amount of 50 mM Tris-HCl buffer. The suspension was centrifuged under the same conditions, and the final precipitate was suspended in 50 mM Tris-HCl [containing 10 mM magnesium chloride and 0.02 unit/mg tissue of adenosine deaminase (manufactured by Sigma Co.)] to give a tissue concentration of 5 mg (wet weight)/ml.
To 1 ml of the tissue suspension thus prepared were added 50 μl of tritium-labeled CGS 21680 {^3 H-2-[p-(2-carboxyethyl)phenethylamino]-5'-N-ethylcarboxamido)adenosine: 40 Ci/mmol; manufactured by New England Nuclear Co.[The Journal of Pharmacology and Experimental Therapeutics, 251: 888 (1989)]} (final concentration:4.0 nM) and 50 μl of a test compound. The resulting mixture was allowed to stand for 120 minutes at 25° C., and then rapidly filtered by suction through a glass fiber filter (GF/C, manufactured by Whatman Co.) The filter was immediately washed three times with […] of an ice-cooled 50 mM Tris-HCl buffer, and transferred to a vial, a scintillator (EX-H , manufactured by Wako Pure Chemical Industries, Ltd.) was added thereto, and the radioactivity on the filter was determined with a liquid scintillation counter (manufactured by Packard Instrument Co.) […]
The inhibition ratio of the test compound against the A2A receptor binding (^3 H-CGS 21680 binding) was calculated by the following equation:
Inhibition ratio (%)={1-(Amount of the binding in the presence of the test compound-Amount of the nonspecific binding)/(Amount of the total binding-Amount of the nonspecific binding)}×100
(Note) Amount of the total binding means the amount of radioactivity of ^3 H-CGS 21680 bound in the absence of the test compound. Amount of the nonspecific binding means the amount of radioactivity of ^3 H-CGS 21680 bound in the presence of 100 μM cyclopentyladenosine (CPA, manufactured by Sigma Co.) Amount of the binding in the presence of the test compound means the amount of radioactivity of ^3 H-CGS 21680 bound in the presence of the test compound at various levels of concentrations.

T1 sequence (P30543 whole entry): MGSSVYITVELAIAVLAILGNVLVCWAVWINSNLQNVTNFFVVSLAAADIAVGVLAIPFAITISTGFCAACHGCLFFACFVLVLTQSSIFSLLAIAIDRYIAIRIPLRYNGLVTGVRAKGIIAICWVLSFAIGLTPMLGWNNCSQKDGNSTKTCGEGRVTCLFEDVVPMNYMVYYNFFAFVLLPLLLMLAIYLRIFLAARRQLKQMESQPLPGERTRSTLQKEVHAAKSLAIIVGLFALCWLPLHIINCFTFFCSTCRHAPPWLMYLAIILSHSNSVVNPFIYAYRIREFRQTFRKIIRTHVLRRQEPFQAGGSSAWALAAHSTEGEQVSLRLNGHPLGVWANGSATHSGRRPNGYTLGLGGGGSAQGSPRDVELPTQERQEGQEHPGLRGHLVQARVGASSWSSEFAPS

Row | inhibition at 0.1 µM (adenosine A2A receptor) [%] | SMILES | Total score (catalepsy) [1] | Number of Animals showing remission [1] | inhibition in vivo at 10 mg/kg [1] [%]
1 | 77 | COc1cc(CN2CCN(c3cc4nc(-c5ccco5)nn4c(N)n3)CC2)cc(OC)c1OC [Compound 77, 5-Amino-2-(2-furyl)-7-(4-(3,4,5-trimethoxybenzyl)piperazinyl)[1,2,4]triazolo[1,5-c]pyrimidine] | 21 | 9 | 54
2 | 85 | Nc1nc(N2CCN(Cc3ccccc3F)CC2)cc2nc(-c3ccco3)nn12 [Compound 78, 5-Amino-7-(4-(2-fluorobenzyl)piperazinyl)-2-(2-furyl)[1,2,4]triazolo[1,5-c]pyrimidine] | 6 | 10 | 86
3 | 93 | Nc1nc(N2CCN(Cc3c(Cl)cccc3Cl)CC2)cc2nc(-c3ccco3)nn12 [Compound 80, 5-Amino-7-(4-(2,6-dichlorobenzyl)piperazinyl)-2-(2-furyl)[1,2,4]triazolo[1,5-c]pyrimidine hydrochloride] | 3 | 10 | 92
4 | 63 | Nc1nc(N2CCN(Cc3ccccn3)CC2)cc2nc(-c3ccco3)nn12 [Compound 84, 5-Amino-2-(2-furyl)-7-(4-(2-picolyl)piperazinyl)[1,2,4]triazolo[1,5-c]pyrimidine] | 9 | 9 | 78
5 | 83 | COc1ccc(CCCN2CCN(c3cc4nc(-c5ccco5)nn4c(N)n3)CC2)cc1OC [Compound 86, 5-Amino-7-(4-(3-(3,4-dimethoxyphenyl)propyl)piperazinyl)-2-(2-furyl)[1,2,4]triazolo[1,5-c]pyrimidine] | 13 | 9 | 72
6 | 59 | COCCCN1CCN(c2cc3nc(-c4ccco4)nn3c(N)n2)CC1 [Compound 99, 5-Amino-2(2-furyl)-7-(4-(3-methoxypropyl)piperazinyl)[1,2,4]triazolo[1,5-c]pyrimidine] | 5 | 10 | 90
7 | 42 | CCCN1CCN(c2cc3nc(-c4ccco4)nn3c(N)n2)CC1 [Compound 123, 5-Amino-2-(2-furyl)-7-(4-propylpiperazinyl)[1,2,4]triazolo[1,5-c]pyrimidine] | 1 | 10 | 96
8 | 59 | C=CCN1CCN(c2cc3nc(-c4ccco4)nn3c(N)n2)CC1 [Compound 124, 5-Amino-7-(4-allylpiperazinyl)-2-(2-furyl)[1,2,4]triazolo[1,5-c]pyrimidine] | 12 | 9 | 76

Further lines, the compound ahead of its results:

Row | SMILES | inhibition at 0.1 µM (adenosine A2A receptor) [%] | Total score (catalepsy) [1] | Number of Animals showing remission [1] | inhibition in vivo at 10 mg/kg [1] [%]
9 | Nc1nc(N2CCN(CCCc3cccnc3)CC2)cc2nc(-c3ccco3)nn12 [Compound 87, 5-Amino-2-(2-furyl)-7-(4-(3-(3-pyridyl)propyl)piperazinyl)[1,2,4]triazolo[1,5-c]pyrimidine hydrochloride] | 77 | 14 | 9 | 68
10 | Nc1nc(N2CCN(CCOc3ccccc3)CC2)cc2nc(-c3ccco3)nn12 [Compound 90, 5-Amino-2-(2-furyl)-7-(4-(2-phenoxyethyl)piperazinyl)[1,2,4]triazolo[1,5-c]pyrimidine hydrochloride] | 82 | 12 | 9 | 80
11 | Nc1nc(N2CCN(c3ccccn3)CC2)cc2nc(-c3ccco3)nn12 [Compound 93, 5-Amino-2-(2-furyl)-7-(4-(2-pyridyl)piperazinyl)[1,2,4]triazolo[1,5-c]pyrimidine] | 36 | 10 | 8 | 66
12 | CCOCCN1CCN(c2cc3nc(-c4ccco4)nn3c(N)n2)CC1 [Compound 96, 5-Amino-7-(4-(2-ethoxyethyl)piperazinyl)-2-(2-furyl)[1,2,4]triazolo[1,5-c]pyrimidine] | 58 | 7 | 9 | 86
13 | Nc1nc(N2CCN(CCOCc3ccccc3)CC2)cc2nc(-c3ccco3)nn12 [Compound 97, 5-Amino-7-(4-(2-benzyloxyethyl)piperazinyl)-2-(2-furyl)[1,2,4]triazolo[1,5-c]pyrimidine hydrochloride] | 79 | 4 | 10 | 90
14 | CCOCCCN1CCN(c2cc3nc(-c4ccco4)nn3c(N)n2)CC1 [Compound 100, 5-Amino-7-(4-(3-ethoxypropyl)piperazinyl)-2-(2-furyl)[1,2,4]triazolo[1,5-c]pyrimidine] | 54 | 4 | 10 | 90
15 | CC(C)OCCCN1CCN(c2cc3nc(-c4ccco4)nn3c(N)n2)CC1 [Compound 101, 5-Amino-2-(2-furyl)-7-(4-(3-isopropoxypropyl)piperazinyl)[1,2,4]triazolo[1,5-c]pyrimidine] | 46 | 8 | 10 | 82
16 | Nc1nc(N2CCN(CCOCCO)CC2)cc2nc(-c3ccco3)nn12 [Compound 103, 5-Amino-2-(2-furyl)-7-(4-(2-(2-hydroxyethoxy)ethyl)piperazinyl)[1,2,4]triazolo[1,5-c]pyrimidine] | 53 | 2 | 10 | 94
17 | C[C@@H]1CN(c2cc3nc(-c4ccco4)nn3c(N)n2)C[C@H](C)N1C [Compound 115, 5-Amino-7-(cis-3,5-dimethyl-4-methylpiperazinyl)-2-(2-furyl)[1,2,4]triazolo[1,5-c]pyrimidine hydrochloride] | 22 | 5 | 10 | 88
18 | C[C@@H]1CN(c2cc3nc(-c4ccco4)nn3c(N)n2)C[C@H](C)N1Cc1ccccc1 [Compound 116, 5-Amino-7-(4-benzyl-cis-3,5-dimethylpiperazinyl)-2-(2-furyl)[1,2,4]triazolo[1,5-c]pyrimidine] | 38 | 5 | 10 | 90
19 | C[C@@H]1CN(c2cc3nc(-c4ccco4)nn3c(N)n2)C[C@H](C)N1CCO [Compound 120, 5-Amino-7-(cis-3,5-dimethyl-4-(2-hydroxyethyl)piperazinyl)-2-(2-furyl)[1,2,4]triazolo[1,5-c]pyrimidine] | 29 | 3 | 10 | 94
